Patent publication US9801961B2, “2-phenylimidazo[1,2-a]pyrimidines as imaging agents” (Hoffmann-La Roche Inc., priority 2013, dated 2017)

Test system: native tau aggregates
Assay: TAU radioligand in vitro displacement assay ([3H]T808 autoradiography on human AD brain sections)
Type: binding
Conditions: radioligand [3H]T808 10 nM, 50 mM Tris pH 7.4, room temperature, 30 min; for % displacement of [3H]T808 (10 nM) at 10 nM: compound 10 nM; for % displacement of [3H]T808 (10 nM) at 1 uM: compound 1 uM
Procedure, shortened: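 Human AD brain cryosections (10 μm) co-incubated with [3H]T808 (10 nM) and test compound at various concentrations in 50 mM Tris pH 7.4, 30 min at room temperature, then washed at 4° C. Autoradiography after 5-day plate exposure. % displacement from ROI specific binding, white-matter signal subtracted as non-specific; cold T808 internal control.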

Compound	% displacement of [3H]T808 (10 nM) at 10 nM [%]	% displacement of [3H]T808 (10 nM) at 1 uM [%]
FC1CCN(c2ccn3cc(-c4ccc(N5CCCC5)cc4)nc3n2)CC1 [Example 14, 7-(4-Fluoropiperidin-1-yl)-2-(4-pyrrolidin-1-ylphenyl)imidazo[1,2-a]pyrimidine]	18	75
Cc1ccc(-c2cn3ccc(N4CCOCC4)nc3n2)cc1 [Example 42, 4-[2-(4-Methylphenyl)imidazo[1,2-a]pyrimidin-7-yl]morpholine]	8	–
CNc1ccn2cc(-c3ccc(OC)c(F)c3)nc2n1 [Example 108, 2-(3-Fluoro-4-methoxyphenyl)-N-methylimidazo[1,2-a]pyrimidin-7-amine]	36	–
CCN(C)c1ccn2cc(-c3ccc(OC)cc3)nc2n1 [Example 66, N-Ethyl-2-(4-methoxyphenyl)-N-methylimidazo[1,2-a]pyrimidin-7-amine]	34	–
Cc1cccc(-c2cn3ccc(N(C)CCOCCF)nc3n2)c1 [Example 68, N-[2-(2-Fluoroethoxy)ethyl]-N-methyl-2-(3-methylphenyl)imidazo[1,2-a]pyrimidin-7-amine]	14	–
CSc1cccc(-c2cn3ccc(N4CCC4)nc3n2)c1 [Example 126, 7-(Azetidin-1-yl)-2-(3-(methylthio)phenyl)imidazo[1,2-a]pyrimidine]	15	–
CNc1ccn2cc(-c3ccccc3)nc2n1 [Example 1, N-Methyl-2-phenylimidazo[1,2-a]pyrimidin-7-amine]	37	–
FCOc1cccc(-c2cn3ccc(NC4CC4)nc3n2)c1 [Example 137, N-Cyclopropyl-2-(3-(fluoromethoxy)phenyl)imidazo[1,2-a]pyrimidin-7-amine]	18	–
CNc1ccn2cc(-c3ccc(CO)cc3)nc2n1 [Example 107, [4-[7-(Methylamino)imidazo[1,2-a]pyrimidin-2-yl]phenyl]methanol acetic acid adduct]	23	–
CNc1ccn2cc(-c3ccc(OC)cc3)nc2n1 [Example 83, 2-(4-Methoxyphenyl)-N-methylimidazo[1,2-a]pyrimidin-7-amine]	41	–
Fc1ccc(-c2cn3ccc(N4CCC(F)CC4)nc3n2)cc1 [Example 6, 2-(4-Fluorophenyl)-7-(4-fluoropiperidin-1-yl)imidazo[1,2-a]pyrimidine]	–	65
COc1ccc(-c2cn3ccc(N4CCCCC4)nc3n2)cc1 [Example 49, 2-(4-Methoxyphenyl)-7-piperidin-1-ylimidazo[1,2-a]pyrimidine]	17	–
Cc1cccc(-c2cn3ccc(N4CCOCC4)nc3n2)c1 [Example 26, 4-[2-(3-Methylphenyl)imidazo[1,2-a]pyrimidin-7-yl]morpholine]	13	–
CNc1ccn2cc(-c3ccc(C)c(OC)c3)nc2n1 [Example 143, 2-(3-Methoxy-4-methylphenyl)-N-methylimidazo[1,2-a]pyrimidin-7-amine]	21	–
COc1ccc(-c2cn3ccc(N4CCN(CCF)CC4)nc3n2)cc1.Cl [Example 19, 7-[4-(2-Fluoroethyl)piperazin-1-yl]-2-(4-methoxyphenyl)imidazo[1,2-a]pyrimidine hydrochloride]	–	74
FCOc1cccc(-c2cn3ccc(N4CCC4)nc3n2)c1 [Example 118, 7-(Azetidin-1-yl)-2-(3-(fluoromethoxy)phenyl)imidazo[1,2-a]pyrimidine]	23	–
Oc1cccc(-c2cn3ccc(NC4CC4)nc3n2)c1 [Example 133, 3-(7-(Cyclopropylamino)imidazo[1,2-a]pyrimidin-2-yl)phenol]	14	–
FCCOc1cccc(-c2cn3ccc(N4CCC4)nc3n2)c1 [Example 115, 7-(Azetidin-1-yl)-2-(3-(2-fluoroethoxy)phenyl)imidazo[1,2-a]pyrimidine]	5	–
COc1ccc(-c2cn3ccc(N4CC(C)C4)nc3n2)cc1 [Example 89, 2-(4-Methoxyphenyl)-7-(3-methylazetidin-1-yl)imidazo[1,2-a]pyrimidine]	20	–
CNc1ccn2cc(-c3ccc(O)c(OC)c3)nc2n1 [Example 98, 2-Methoxy-4-[7-(methylamino)imidazo[1,2-a]pyrimidin-2-yl]phenol]	18	–
CNc1ccn2cc(-c3cccc(OCF)c3)nc2n1 [Example 131, 2-(3-(Fluoromethoxy)phenyl)-N-methylimidazo[1,2-a]pyrimidin-7-amine]	33	–
Oc1ccc(-c2cn3ccc(N4CCC4)nc3n2)cc1 [Example 80, 4-[7-(Azetidin-1-yl)imidazo[1,2-a]pyrimidin-2-yl]phenol]	25	–

Compound	% displacement of [3H]T808 (10 nM) at 10 nM [%]	% displacement of [3H]T808 (10 nM) at 1 uM [%]
CNc1ccn2cc(-c3ccc(NC(C)=O)cc3)nc2n1 [Example 109, N-(4-(7-(Methylamino)imidazo[1,2-a]pyrimidin-2-yl)phenyl)acetamide]	30	–
FCCOc1ccc(-c2cn3ccc(N4CCCC4)nc3n2)cc1 [Example 29, 2-[4-(2-Fluoroethoxy)phenyl]-7-pyrrolidin-1-ylimidazo[1,2-a]pyrimidine]	15	–
COc1ccc(-c2cn3ccc(N(C)CCF)nc3n2)cc1 [Example 23, N-(2-Fluoroethyl)-2-(4-methoxyphenyl)-N-methylimidazo[1,2-a]pyrimidin-7-amine]	33	92
FCOc1ccc(-c2cn3ccc(NC4CC4)nc3n2)cc1 [Example 140, N-Cyclopropyl-2-(4-(fluoromethoxy)phenyl)imidazo[1,2-a]pyrimidin-7-amine]	11	–
COc1ccc(-c2cn3ccc(N4CCC(CCF)CC4)nc3n2)cc1 [Example 56, 7-[4-(2-Fluoroethyl)piperidin-1-yl]-2-(4-methoxyphenyl)imidazo[1,2-a]pyrimidine]	9	–
Cc1cccc(-c2cn3ccc(N4CC(F)C4)nc3n2)c1 [Example 72, 7-(3-Fluoroazetidin-1-yl)-2-(3-methylphenyl)imidazo[1,2-a]pyrimidine]	18	–
CNc1ccn2cc(-c3cccc(OCCF)c3)nc2n1 [Example 129, 2-(3-(2-Fluoroethoxy)phenyl)-N-methylimidazo[1,2-a]pyrimidin-7-amine]	16	–
COc1ccc(-c2cn3ccc(NC(C)C)nc3n2)cc1 [Example 77, N-Isopropyl-2-(4-methoxy-phenyl)-imidazo[1,2-a]pyrimidin-7-amine]	15	–
CNc1ccn2cc(-c3ccc4c(c3)CC(=O)N4)nc2n1 [Example 110, 5-(7-(Methylamino)imidazo[1,2-a]pyrimidin-2-yl)indolin-2-one]	18	–
CNc1ccn2cc(-c3cccc(O)c3)nc2n1 [Example 125, 3-(7-(Methylamino)imidazo[1,2-a]pyrimidin-2-yl)phenol]	16	–
COc1cc(OC)cc(-c2cn3ccc(N4CCC4)nc3n2)c1 [Example 121, 7-(Azetidin-1-yl)-2-(3,5-dimethoxyphenyl)imidazo[1,2-a]pyrimidine]	5	–
FCCOc1cccc(-c2cn3ccc(NC4CC4)nc3n2)c1 [Example 134, N-Cyclopropyl-2-(3-(2-fluoroethoxy)phenyl)imidazo[1,2-a]pyrimidin-7-amine]	6	–
COc1ccc(-c2cn3ccc(N(C)C4CC4)nc3n2)cc1 [Example 93, N-Cyclopropyl-2-(4-methoxyphenyl)-N-methylimidazo[1,2-a]pyrimidin-7-amine]	42	–
Cc1cccc(-c2cn3ccc(N4CCCCC4)nc3n2)c1 [Example 52, 2-(3-Methylphenyl)-7-piperidin-1-ylimidazo[1,2-a]pyrimidine]	14	–
COc1ccc(-c2cn3ccc(N4CC[C@@H](F)C4)nc3n2)cc1 [Example 33, 7-[(3R)-3-Fluoropyrrolidin-1-yl]-2-(4-methoxyphenyl)imidazo[1,2-a]pyrimidine]	25	–
COc1cccc(-c2cn3ccc(N(C)CCF)nc3n2)c1 [Example 22, N-(2-Fluoroethyl)-2-(3-methoxyphenyl)-N-methylimidazo[1,2-a]pyrimidin-7-amine]	–	82
COc1ccc(-c2cn3ccc(N4CCOCC4)nc3n2)cc1OC [Example 27, 4-[2-(3,4-Dimethoxyphenyl)imidazo[1,2-a]pyrimidin-7-yl]morpholine]	17	–
CNc1ccn2cc(-c3cccc(OCCCF)c3)nc2n1 [Example 130, 2-(3-(3-Fluoropropoxy)phenyl)-N-methylimidazo[1,2-a]pyrimidin-7-amine]	12	–
COc1ccc(-c2cn3ccc(N4CCCC4)nc3n2)cc1 [Example 43, 2-(4-Methoxyphenyl)-7-pyrrolidin-1-ylimidazo[1,2-a]pyrimidine]	29	–
COc1ccc(-c2cn3ccc(N(CCF)C4CC4)nc3n2)cc1 [Example 116, N-Cyclopropyl-N-(2-fluoroethyl)-2-(4-methoxyphenyl)imidazo[1,2-a]pyrimidin-7-amine]	9	–
Fc1ccccc1-c1cn2ccc(N3CCC(F)CC3)nc2n1 [Example 12, 2-(2-Fluorophenyl)-7-(4-fluoropiperidin-1-yl)imidazo[1,2-a]pyrimidine]	–	50
COc1ccc(-c2cn3ccc(N4CCC4)nc3n2)cc1 [Example 69, 7-(Azetidin-1-yl)-2-(4-methoxyphenyl)imidazo[1,2-a]pyrimidine]	40	–
